Two compounds from US20220389049A1, “REVERSIBLE TERMINATORS FOR DNA SEQUENCING AND METHODS OF USING THE SAME” (Centrillion Technologies, Inc., priority 2019, published 2022) can be followed below.

Each structure is given as a SMILES string.

One series relates to DNA polymerase ("CENT1"). As to the kind of experiment: Enzymatic incorporation and cleavage studies: primer extension with compound 5 into a growing DNA chain (FIG. 2). The series is classed as biochemical. From the text:
Enzymatic Incorporation and Cleavage Studies: (2R,3S,5R)-2-(((hydroxy((hydroxy(phosphonooxy)phosphoryl)oxy)phosphoryl)oxy)methyl)-5-(5-methyl-2,4-dioxo-3,4-dihydropyrimidin-1(2H)-yl)tetrahydrofuran-3-yl 3-azidopropanoate (5), a model compound, was synthesized similar to conditions of the relevant reactions disclosed in Scheme 1.

The nature of series [1]: Chemical cleavage of the 3′O-blocking group of the free triphosphate by reducing reagent. Format: physicochemical. The note with it: heating with THPP or TCEP in 1×TE buffer at 55° C. for 5 min. As to the method:
Cleavage of 3′O-[dithio-1-butynyl)-methyl)-thymidine triphosphate (15): The 3′O-bolcking group, alkyne dithioalkynemethyl ether from triphosphate 15 was cleaved by heating with 1, 4-dithiothreitol or (DTT) or tris(2-carboxyethyl) phosphine (TCEP) in 1×TE buffer (pH 9.5) at 55 degree Celsius for 5 min to afford thymidine triphosphate as shown in the Scheme 5.

For a further series, the system named is growing DNA chain. As to the kind of experiment: Enzymatic incorporation: primer extension with compound 15 into a growing DNA chain (FIG. 3). The settings on record: FIG. 3 lanes 3, 4, 6 and 7. Format: biochemical.

Regarding `Cc1cn([C@H]2C[C@@H](OC(=O)CCN=[N+]=[N-])[C@@H](COP(=O)(O)OP(=O)(O)OP(=O)(O)O)O2)c(=O)[nH]c1=O` [compound 5, 3′O-(3-azidopropionyl)-thymidine triphosphate], the “blockage of further extension after incorporation of the terminator” value in the series with DNA polymerase ("CENT1") ("runaway" reaction in the presence of all four unmodified dNTPs and a polymerase, FIG. 2 lane 4) was “blockage of further extension”. Moreover, the “cleavage of the label and the blocking group after incorporation” value in the series on DNA polymerase ("CENT1") (FIG. 2 lane 5) is “cleavage of the label and the blocking group”. The “further extension by the next base added after the cleavage” value with DNA polymerase ("CENT1") (FIG. 2 lane 6) was “further extension by the next base added”. In the series on DNA polymerase ("CENT1") (in the presence of DNA polymerase ("CENT1"), FIG. 2 lane 3), the enzymatic incorporation result is on record as “can be used in enzymatic incorporation”. In series [1], the “cleavage of the 3′O-azidoalkanoate” value is “neatly cleaved”.
As to `C#CCCCSSCO[C@@H]1C[C@H](n2cc(C)c(=O)[nH]c2=O)O[C@@H]1COP(=O)(O)OP(=O)(O)OP(=O)(O)O` [compound 15], the enzymatic incorporation result in the series on growing DNA chain was “excellent enzymatic incorporation”.
